Data published in article PMC7286914 (2020).

What was measured:
Assay in all cases: Cy3/quencher fluorescence titration, Langmuir fit
[1] = test system: TAT60 (DNA, aptamer) CACCTGGGGGAGTATTGCGGAGGAAGGTTTTGAGGGAAAGAATCATTTCTTTCCCTATGTTTCCCTTTCTTTTTAACCAGGTG; details: 6 mM MgCl2; Na+ (concentration not stated); 10 mM Tris, 10 mM Bis-Tris, 10 mM sodium acetate, pH 7, room temperature; apparent, intramolecular displacement strand competes
[2] = test system: Combined TAT80/A-C Mismatch (DNA, aptamer) CACCTGGGGGAGTATTGCGGAGGAAGGTTTTGAAGAAAAAGATTGCTCTTTTTCTTATTGTTTCTTTTTCTATTTACCCCCAAGTG; details: 6 mM MgCl2; Na+ (concentration not stated); 10 mM Tris, 10 mM Bis-Tris, 10 mM sodium acetate, pH 6.5, room temperature; apparent, intramolecular displacement strand competes
[3] = test system: A-C Mismatch (DNA, aptamer) CACCTGGGGGAGTATTGCGGAGGAAGGTTTTTTTTTTTTTACCCCCAAGTG; details: 6 mM MgCl2; Na+ (concentration not stated); 10 mM Tris, 10 mM Bis-Tris, 10 mM sodium acetate, pH 8, room temperature; apparent, intramolecular displacement strand competes
[4] = test system: A-G Mismatch (DNA, aptamer) CACCTGGGGGAGTATTGCGGAGGAAGGTTTTTTTTTTTTTTTCCCAAGGTG; details: 6 mM MgCl2; Na+ (concentration not stated); 10 mM Tris, 10 mM Bis-Tris, 10 mM sodium acetate, pH 7.5, room temperature; apparent, intramolecular displacement strand competes

KDeff [1]: 3.9 (95% CI 3.2–4.8) mM
KDeff [2]: 32 (95% CI 27–39) μM
KDeff [3]: 0.30 (95% CI 0.25–0.36) mM
KDeff [4]: 0.32 (95% CI 0.27–0.37) mM
SMILES: Nc1ncnc2c1ncn2[C@@H]1O[C@H](COP(=O)(O)OP(=O)(O)OP(=O)(O)O)[C@@H](O)[C@H]1O
